The values below come from patent publication US11661398B2, “Cellular transport system for transferring a sulfonic acid construct carrying a cargo into the cytoplasm of a cell” (Scientist of Fortune, S.A., priority 2017, dated 2023).

One assay relates to PnGGT* P505T. Kind of assay: Sulfobutanoyl-p-nitroanilide hydrolysis kinetics. Type of assay: biochemical, Pseudomonas nitroreducens. The note with it: 50 mM Tris/HCl (pH 7.0). On the procedure: FIG. 31. Sulfobutanoyl-p-nitroanilide hydrolysis kinetics of PnGGT* P505T. The kinetic parameters of PnGGT* P505T were determined in 50 mM Tris/HCl (pH 7.0) with the substrate sulfobutanoyl-p-nitroanilide added to the following concentrations: 50, 100, 250, 500, 750, 1000, 1500 and 2000 μM. […] Fitting of the kinetic data was performed with SigmaPlot v.12.2. Dots represent the average of three independent measurements with standard deviations shown as error bars.
For the experiments relating to the sulfonate based synthetic transport system, purification of PnGGT ΔN24 and PnGGT ΔN24 D405N containing an N-terminal 6×His-tag was performed according to previous reports (Van Dyke et al., 1992) using Ni-NTA Superflow (Qiagen, Hilden, Germany). For kinetic studies, PnGGT variants were purified with the aid of the 6×His-tag located at the N-terminal end of the large subunit following the same procedure. To exchange the buffer, purified proteins were dialyzed against 50 mM Tris/HCl (pH 7.0).

The next assay concerns the target T1, PnGGT ΔN24 D405N (Pseudomonas nitroreducens, UniProt E0D5C2, D405N).
T1 sequence (E0D5C2 with tags, fused parts or gaps D405N): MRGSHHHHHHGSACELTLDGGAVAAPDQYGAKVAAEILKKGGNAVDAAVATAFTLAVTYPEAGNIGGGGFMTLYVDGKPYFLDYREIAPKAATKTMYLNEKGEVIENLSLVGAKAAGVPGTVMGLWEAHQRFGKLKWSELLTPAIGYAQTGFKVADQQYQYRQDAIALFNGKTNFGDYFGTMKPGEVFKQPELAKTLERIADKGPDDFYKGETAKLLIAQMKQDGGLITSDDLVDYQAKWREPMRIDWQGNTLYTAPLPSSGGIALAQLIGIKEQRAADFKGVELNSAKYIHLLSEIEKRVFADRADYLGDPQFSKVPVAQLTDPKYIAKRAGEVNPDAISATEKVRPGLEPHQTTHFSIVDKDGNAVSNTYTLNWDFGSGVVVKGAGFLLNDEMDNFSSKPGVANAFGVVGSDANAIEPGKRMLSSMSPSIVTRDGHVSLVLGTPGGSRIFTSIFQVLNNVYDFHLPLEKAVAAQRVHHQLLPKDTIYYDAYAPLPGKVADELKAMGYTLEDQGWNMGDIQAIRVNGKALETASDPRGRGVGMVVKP
Briefly: Colorimetric GGT assay in whole cell lysates / cell free extracts. Format: biochemical. The note with it: whole cell lysate, 4 mM substrate, 50 mM Tris-HCl (pH 9.0), 410 nm. The text has this: FIG. 22: Identification of GGT* activity and refactoring of the ssuABC operon. […] The release of 4-nitroaniline was quantified by measuring the absorption at 410 nm. (b) Plasmid map of the three-dimensional RBS-library for refactoring the ssuABC operon using 144 RBS variants per gene. RBS library sequences are underlined. Arrows point towards the final RBS sequences observed in plasmid pSsuABC. […] (e) Growth of strain TK088[pSsuABC]transformed with the empty vector pACT3 (black circles) or plasmid pPnGGT* (white circles) in liquid MS minimal medium supplemented with 0.5% glucose, 1 mM MgSO4, 0.4 mM L-leucine, 0.5 mM IPTG, 100 ng ml^−1 aTc and 0.5 mM sulfobutanoyl-L-histidine. Bars and dots from panels (a), (d) and (e) represent the average of three independent measurements with standard deviations shown as error bars.
To test for the desired activity a colorimetric enzyme assay was chosen and the substrate sulfobutanoyl-p-nitroanilide was synthesized for this purpose. Hydrolysis of this colorless substrate by a GGT variant into sulfobutanoic acid and the yellow dye 4-nitroaniline can be quantified photometrically at 410 nm. For that, cytoplasmic GGT variants containing an N-terminal 6×His-tag were first expressed from E. coli (EcGGT ΔN24) and Pseudomonas nitroreducens (PnGGT ΔN24), as well as EcGGT ΔN24 D433N and the corresponding mutant variant PnGGT ΔN24 D405N. […]

The next assay relates to TK082. Kind of assay: In vivo hydrolysis of sulfobutanoyl-p-nitroanilide and sulfobutanoyl-AMC. The note with it: 0.5 mM compound, different plasmid combinations. Type of assay: cell-based, E. coli. On the procedure: Strain TK082 was transformed with plasmids as indicated in the text and grown at 37° C. in MS minimal medium supplemented with 0.5% glucose, 1 mM MgSO4 and 0.4 mM L-leucine to an OD600 of 0.5. At that stage, the synthesis of PnGGT* and/or SsuABC was induced for 2 hours by adding 0.5 mM IPTG and 100 ng mL^−1 aTc. Following this synthesis period, cells were washed in the same medium to remove proteins that had been released into the medium by cell lysis. After an additional centrifugation step, cells were resuspended in MS minimal medium supplemented with 0.5% glucose, 1 mM MgSO4, 0.4 mM L-leucine, 0.5 mM IPTG, 100 ng mL^−1 aTc and 0.5 mM sulfobutanoyl-p-nitroanilide or sulfobutanoyl-AMC (see below for description of synthesis) and incubated in a Tecan Infinite 200 Pro plate reader at 37° C. To monitor cell density and the release of 4-nitroaniline, absorbance was constantly measured at 600 nm and 410 nm. The release of AMC was monitored by measuring the fluorescence at λex=350 nm and λem=450 nm. To determine the influence of competition for the sulfonate transporter SsuABC, different concentrations of pentanesulfonate (Sigma Aldrich) were added to the medium.

The structures appear in SMILES notation. Structures can show the parent of a compound that is named as a salt.

As for `O=C(CCCS(=O)(=O)O)Nc1ccc([N+](=O)[O-])cc1` [sodium salt], in the assay with PnGGT* P505T, the “improvement of catalytic efficiency (kcat/KM) over PnGGT*” value was 39% and the “improvement of kcat over PnGGT*” value is recorded as 8%. For the same compound, the “lower K (KM) over PnGGT*” value in the assay on PnGGT* P505T (50-2000 μM substrate) was 27%. At PnGGT ΔN24 D405N, the hydrolysis of substrate entry is listed as “significantly higher activity than EcGGT ΔN24 D433N”. In addition, the “in vivo release of 4-nitroaniline from the compound” value with TK082 was “only released from the SBA moiety when SsuABC and PnGGT* were simultaneously synthesized”.
